Measurements as given in patent US20070207946A1, “Dipeptidyl peptidase IV inhibitors and their uses for lowering blood pressure levels” (priority 2001, published 2007).

Target: T1, recombinant human prolyl oligopeptidase (Homo sapiens, UniProt P48147)
T1 construct: made in house; host or cells: E. coli
T1 sequence (P48147 1-710): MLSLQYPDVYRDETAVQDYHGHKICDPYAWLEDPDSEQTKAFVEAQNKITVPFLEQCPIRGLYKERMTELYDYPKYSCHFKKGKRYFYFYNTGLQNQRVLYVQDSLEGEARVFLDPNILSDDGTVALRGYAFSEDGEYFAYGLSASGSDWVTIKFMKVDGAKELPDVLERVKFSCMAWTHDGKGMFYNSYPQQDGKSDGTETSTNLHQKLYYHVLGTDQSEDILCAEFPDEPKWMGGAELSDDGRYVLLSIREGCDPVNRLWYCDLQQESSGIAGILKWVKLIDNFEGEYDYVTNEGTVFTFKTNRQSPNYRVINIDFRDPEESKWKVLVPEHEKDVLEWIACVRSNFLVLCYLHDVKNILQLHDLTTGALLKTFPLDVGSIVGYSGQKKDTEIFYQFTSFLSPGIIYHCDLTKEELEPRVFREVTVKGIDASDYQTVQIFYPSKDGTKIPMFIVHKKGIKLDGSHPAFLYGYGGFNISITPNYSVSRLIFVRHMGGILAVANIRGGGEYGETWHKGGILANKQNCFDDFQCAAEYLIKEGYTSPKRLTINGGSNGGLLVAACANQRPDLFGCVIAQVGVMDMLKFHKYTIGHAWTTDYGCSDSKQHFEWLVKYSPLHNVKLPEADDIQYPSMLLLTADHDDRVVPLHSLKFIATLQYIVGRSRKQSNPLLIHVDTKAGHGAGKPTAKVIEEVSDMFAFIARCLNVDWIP
Test: Cross reacting enzymes - prolyl oligopeptidase
Assay type: biochemical
Settings: concentration range 1*10^−4M-5*10^−8 M; pH7.6
Protocol: Substrates are peptides with a molecular weight up to 3000 Da. The enzyme used was a recombinant human prolyl oligopeptidase. Recombinant expression was performed in E. coli under standard conditions as described elsewhere in the state of the art.
100 μl glutaminyl pyrrolidine or glutaminyl thiazolidine in an concentration range of 1*10^−4M-5*10^−8 M were admixed with 100 μl μl buffer solution (40 mM HEPES, pH7.6, 0.015% Brij, 1 mM DTT) and 20 μl POP solution. The assay mixture was pre-incubated at 30° C. for 15 min. After pre-incubation, 50 μl glycylprolylprolyl-4-nitroaniline solution (0.29 mM) was added and measurement of yellow color development due to 4-nitroaniline release was performed at 30° C. and λ=405 nm for 10 min using a plate reader (sunrise, Tecan, Crailsheim, Germany). The IC50-values were calculated using Graphit 4.0.15 (Erithacus Software, Ltd., UK).

## NC(=O)CCC(N)C(=O)N1CCCC1 (stereo not shown) [Gln-Pyrr, glutaminyl pyrrolidine]
  inhibition of POP activity: No inhibition
